# Key:
# Experiment in all cases: KinomeScan profiling
# Assay type in all cases: binding
# [1] = target: HIPK1 (Homo sapiens, UniProt Q86Z02); conditions: HIPK1, 1 μM; read-out: % control
# Summary of the method: (§1)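 1 μM cpd in DMSO; 468-kinase panel; readout RLU. % ctrl = (cpd − pos ctrl)/(neg ctrl − pos ctrl) ×100. Pos ctrl = 0%, DMSO = 100%. Hit cut-off <35%.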
# [2] = target: T1, ACVR1 (Homo sapiens, UniProt Q04771); conditions: ACVR1, 1 μM; read-out: % control
# T1 construct: purchased KinomeScan®
# T1 sequence (Q04771 21-509): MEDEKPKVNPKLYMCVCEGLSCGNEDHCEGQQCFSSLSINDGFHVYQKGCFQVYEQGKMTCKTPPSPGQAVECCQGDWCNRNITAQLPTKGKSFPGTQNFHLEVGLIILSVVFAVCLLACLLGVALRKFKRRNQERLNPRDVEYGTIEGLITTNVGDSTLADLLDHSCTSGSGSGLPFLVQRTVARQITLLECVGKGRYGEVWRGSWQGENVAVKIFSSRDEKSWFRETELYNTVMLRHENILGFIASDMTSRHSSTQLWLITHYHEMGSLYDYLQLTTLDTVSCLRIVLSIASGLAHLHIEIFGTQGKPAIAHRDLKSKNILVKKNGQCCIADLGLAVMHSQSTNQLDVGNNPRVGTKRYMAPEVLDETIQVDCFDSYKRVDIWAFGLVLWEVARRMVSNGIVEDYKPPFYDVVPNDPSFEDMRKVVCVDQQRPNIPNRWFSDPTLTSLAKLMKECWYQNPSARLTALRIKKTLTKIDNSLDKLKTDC
# Summary of the method: as §1
# [3] = target: T2, AKT1 (Homo sapiens, UniProt P31749); conditions: AKT1, 1 μM; read-out: % control
# T2 construct: purchased KinomeScan®
# T2 sequence (P31749 whole entry): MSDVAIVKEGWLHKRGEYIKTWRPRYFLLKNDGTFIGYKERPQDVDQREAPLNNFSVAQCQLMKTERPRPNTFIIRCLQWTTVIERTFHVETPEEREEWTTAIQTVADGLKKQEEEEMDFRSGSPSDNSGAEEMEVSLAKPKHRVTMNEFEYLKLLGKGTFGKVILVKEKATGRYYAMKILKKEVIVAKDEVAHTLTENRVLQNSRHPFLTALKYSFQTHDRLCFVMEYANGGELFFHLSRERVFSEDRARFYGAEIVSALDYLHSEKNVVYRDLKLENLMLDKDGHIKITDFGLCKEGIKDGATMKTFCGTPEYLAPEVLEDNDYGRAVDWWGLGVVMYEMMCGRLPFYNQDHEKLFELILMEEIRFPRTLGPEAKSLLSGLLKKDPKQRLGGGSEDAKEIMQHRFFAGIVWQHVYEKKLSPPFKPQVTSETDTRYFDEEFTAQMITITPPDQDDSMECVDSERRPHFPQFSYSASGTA
# Summary of the method: as §1
# [4] = target: EGFR(L858R) (Homo sapiens, UniProt P00533, L858R); conditions: read-out: % control
# EGFR(L858R), sequence (P00533 25-1210 L858R): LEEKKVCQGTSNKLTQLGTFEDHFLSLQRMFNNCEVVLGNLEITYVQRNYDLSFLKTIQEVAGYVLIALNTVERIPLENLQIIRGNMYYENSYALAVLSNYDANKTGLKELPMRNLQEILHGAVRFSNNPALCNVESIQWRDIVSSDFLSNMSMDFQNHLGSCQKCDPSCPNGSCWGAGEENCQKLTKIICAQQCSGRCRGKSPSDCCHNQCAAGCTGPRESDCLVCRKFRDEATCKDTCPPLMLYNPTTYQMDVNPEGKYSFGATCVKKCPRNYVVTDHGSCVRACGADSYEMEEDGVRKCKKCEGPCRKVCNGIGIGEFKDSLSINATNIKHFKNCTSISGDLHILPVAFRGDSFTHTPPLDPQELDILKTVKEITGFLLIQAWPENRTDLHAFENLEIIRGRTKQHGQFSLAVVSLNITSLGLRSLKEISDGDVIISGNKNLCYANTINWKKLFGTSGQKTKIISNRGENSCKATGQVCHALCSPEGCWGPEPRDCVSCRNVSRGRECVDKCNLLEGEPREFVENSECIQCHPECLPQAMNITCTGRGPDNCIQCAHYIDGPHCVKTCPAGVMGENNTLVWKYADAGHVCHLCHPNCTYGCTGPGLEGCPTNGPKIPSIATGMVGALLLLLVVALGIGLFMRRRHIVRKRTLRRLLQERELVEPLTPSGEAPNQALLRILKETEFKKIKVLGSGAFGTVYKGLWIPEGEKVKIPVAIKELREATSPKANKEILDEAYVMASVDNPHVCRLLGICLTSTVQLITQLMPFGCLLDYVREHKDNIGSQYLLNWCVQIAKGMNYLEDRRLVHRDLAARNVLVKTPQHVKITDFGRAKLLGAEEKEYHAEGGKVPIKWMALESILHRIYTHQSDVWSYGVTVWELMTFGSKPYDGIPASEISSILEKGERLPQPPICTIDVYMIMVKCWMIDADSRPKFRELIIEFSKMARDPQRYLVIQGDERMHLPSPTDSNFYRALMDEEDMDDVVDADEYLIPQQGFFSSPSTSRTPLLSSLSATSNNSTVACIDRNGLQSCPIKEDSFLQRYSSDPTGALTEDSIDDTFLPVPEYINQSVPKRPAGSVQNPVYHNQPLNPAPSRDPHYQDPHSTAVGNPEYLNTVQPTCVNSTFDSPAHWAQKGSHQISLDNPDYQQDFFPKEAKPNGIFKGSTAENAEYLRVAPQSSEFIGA
# Summary of the method: as §1
# [5] = target: MAP3K1 (Homo sapiens, UniProt Q13233); conditions: MAP3K1, 1 μM; read-out: % control
# Summary of the method: as §1
# [6] = target: T3, CDC2L2 (Homo sapiens, UniProt Q9UQ88); conditions: CDC2L2, 1 μM; read-out: % control
# T3 sequence (Q9UQ88 1-783): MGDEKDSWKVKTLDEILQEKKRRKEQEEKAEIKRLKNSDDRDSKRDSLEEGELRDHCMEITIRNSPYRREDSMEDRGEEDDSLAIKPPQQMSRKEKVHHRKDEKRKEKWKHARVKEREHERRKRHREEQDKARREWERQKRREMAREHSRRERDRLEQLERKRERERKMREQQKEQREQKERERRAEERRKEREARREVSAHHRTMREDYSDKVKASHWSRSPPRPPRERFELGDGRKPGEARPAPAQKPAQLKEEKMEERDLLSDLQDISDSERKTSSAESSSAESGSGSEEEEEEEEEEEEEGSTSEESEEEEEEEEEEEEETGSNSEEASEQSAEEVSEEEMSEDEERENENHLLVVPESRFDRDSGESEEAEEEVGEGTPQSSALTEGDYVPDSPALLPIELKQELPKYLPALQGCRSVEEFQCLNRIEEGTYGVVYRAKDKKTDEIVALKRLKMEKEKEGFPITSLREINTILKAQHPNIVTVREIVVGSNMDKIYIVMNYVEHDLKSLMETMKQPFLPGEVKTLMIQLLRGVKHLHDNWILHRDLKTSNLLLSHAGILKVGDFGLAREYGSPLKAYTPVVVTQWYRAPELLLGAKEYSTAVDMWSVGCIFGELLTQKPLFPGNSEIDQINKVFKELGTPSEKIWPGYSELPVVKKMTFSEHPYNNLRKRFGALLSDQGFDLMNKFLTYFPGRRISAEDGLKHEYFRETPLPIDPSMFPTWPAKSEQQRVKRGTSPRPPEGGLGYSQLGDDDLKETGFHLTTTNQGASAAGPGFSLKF
# Summary of the method: as §1
# [7] = target: RAF1 (Homo sapiens, UniProt P04049); conditions: RAF1, 1 μM; read-out: % control
# RAF1, sequence (P04049 whole entry): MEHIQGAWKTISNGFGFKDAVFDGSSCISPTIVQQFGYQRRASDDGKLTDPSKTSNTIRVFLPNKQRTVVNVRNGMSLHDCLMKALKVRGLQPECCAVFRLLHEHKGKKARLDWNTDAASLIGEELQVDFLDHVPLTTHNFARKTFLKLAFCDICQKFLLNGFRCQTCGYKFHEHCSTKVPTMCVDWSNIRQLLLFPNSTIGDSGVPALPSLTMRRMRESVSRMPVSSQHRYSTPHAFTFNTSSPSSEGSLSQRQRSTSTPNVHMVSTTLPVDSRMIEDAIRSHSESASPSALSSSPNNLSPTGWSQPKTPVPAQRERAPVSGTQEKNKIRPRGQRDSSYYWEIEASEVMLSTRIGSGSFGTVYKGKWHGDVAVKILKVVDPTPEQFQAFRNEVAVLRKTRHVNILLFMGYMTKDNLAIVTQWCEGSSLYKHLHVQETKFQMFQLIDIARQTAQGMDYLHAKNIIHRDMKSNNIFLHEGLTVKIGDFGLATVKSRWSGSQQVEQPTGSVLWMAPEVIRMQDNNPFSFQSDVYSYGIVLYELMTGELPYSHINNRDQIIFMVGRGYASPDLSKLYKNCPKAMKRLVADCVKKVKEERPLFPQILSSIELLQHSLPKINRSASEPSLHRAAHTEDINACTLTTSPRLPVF
# Summary of the method: as §1
# [8] = target: T4, p38-gamma (Homo sapiens, UniProt P53778); conditions: read-out: % control
# T4 sequence (P53778 1-367): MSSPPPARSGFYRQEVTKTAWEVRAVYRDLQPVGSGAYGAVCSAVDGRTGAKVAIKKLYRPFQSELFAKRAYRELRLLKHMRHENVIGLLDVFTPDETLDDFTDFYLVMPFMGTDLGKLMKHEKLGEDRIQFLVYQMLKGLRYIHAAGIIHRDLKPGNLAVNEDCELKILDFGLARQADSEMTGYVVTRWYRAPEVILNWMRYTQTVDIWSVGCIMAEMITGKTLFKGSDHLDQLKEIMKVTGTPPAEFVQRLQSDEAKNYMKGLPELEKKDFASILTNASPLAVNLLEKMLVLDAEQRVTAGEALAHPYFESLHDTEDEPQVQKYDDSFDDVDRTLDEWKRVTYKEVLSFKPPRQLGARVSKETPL
# Summary of the method: as §1
# [9] = target: RET(M918T) (Homo sapiens, UniProt P07949, M918T); conditions: read-out: % control
# RET(M918T), sequence (P07949 29-1114 M918T): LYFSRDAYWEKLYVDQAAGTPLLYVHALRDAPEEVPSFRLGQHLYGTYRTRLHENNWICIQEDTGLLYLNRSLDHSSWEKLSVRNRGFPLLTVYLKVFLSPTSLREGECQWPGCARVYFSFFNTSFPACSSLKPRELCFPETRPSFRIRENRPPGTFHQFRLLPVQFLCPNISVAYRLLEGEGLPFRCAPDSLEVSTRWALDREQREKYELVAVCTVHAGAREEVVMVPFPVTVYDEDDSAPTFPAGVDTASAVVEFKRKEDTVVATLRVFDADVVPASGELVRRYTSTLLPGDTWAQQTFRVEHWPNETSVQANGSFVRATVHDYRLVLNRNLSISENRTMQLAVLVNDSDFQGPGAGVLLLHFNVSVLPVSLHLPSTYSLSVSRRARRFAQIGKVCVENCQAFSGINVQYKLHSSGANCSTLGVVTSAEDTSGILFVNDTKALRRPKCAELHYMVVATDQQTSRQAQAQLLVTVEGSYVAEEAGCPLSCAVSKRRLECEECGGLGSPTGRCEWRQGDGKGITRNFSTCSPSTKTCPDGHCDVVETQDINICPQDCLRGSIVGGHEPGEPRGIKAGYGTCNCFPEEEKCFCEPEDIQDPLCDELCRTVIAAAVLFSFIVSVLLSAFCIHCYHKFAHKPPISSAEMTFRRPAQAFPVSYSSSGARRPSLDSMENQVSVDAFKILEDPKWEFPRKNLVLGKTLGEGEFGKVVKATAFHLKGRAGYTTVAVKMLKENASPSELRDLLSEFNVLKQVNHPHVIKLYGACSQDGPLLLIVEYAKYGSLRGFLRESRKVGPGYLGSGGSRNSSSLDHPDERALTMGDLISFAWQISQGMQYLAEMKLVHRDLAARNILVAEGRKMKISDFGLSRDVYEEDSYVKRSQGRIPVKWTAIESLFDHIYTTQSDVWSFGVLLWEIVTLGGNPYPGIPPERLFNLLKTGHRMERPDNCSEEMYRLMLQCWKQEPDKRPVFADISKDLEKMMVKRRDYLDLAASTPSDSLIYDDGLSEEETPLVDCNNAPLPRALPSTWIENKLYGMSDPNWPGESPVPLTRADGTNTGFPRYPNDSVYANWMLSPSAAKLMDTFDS
# Summary of the method: as §1
# HIPK1, sequence (Q86Z02 whole entry): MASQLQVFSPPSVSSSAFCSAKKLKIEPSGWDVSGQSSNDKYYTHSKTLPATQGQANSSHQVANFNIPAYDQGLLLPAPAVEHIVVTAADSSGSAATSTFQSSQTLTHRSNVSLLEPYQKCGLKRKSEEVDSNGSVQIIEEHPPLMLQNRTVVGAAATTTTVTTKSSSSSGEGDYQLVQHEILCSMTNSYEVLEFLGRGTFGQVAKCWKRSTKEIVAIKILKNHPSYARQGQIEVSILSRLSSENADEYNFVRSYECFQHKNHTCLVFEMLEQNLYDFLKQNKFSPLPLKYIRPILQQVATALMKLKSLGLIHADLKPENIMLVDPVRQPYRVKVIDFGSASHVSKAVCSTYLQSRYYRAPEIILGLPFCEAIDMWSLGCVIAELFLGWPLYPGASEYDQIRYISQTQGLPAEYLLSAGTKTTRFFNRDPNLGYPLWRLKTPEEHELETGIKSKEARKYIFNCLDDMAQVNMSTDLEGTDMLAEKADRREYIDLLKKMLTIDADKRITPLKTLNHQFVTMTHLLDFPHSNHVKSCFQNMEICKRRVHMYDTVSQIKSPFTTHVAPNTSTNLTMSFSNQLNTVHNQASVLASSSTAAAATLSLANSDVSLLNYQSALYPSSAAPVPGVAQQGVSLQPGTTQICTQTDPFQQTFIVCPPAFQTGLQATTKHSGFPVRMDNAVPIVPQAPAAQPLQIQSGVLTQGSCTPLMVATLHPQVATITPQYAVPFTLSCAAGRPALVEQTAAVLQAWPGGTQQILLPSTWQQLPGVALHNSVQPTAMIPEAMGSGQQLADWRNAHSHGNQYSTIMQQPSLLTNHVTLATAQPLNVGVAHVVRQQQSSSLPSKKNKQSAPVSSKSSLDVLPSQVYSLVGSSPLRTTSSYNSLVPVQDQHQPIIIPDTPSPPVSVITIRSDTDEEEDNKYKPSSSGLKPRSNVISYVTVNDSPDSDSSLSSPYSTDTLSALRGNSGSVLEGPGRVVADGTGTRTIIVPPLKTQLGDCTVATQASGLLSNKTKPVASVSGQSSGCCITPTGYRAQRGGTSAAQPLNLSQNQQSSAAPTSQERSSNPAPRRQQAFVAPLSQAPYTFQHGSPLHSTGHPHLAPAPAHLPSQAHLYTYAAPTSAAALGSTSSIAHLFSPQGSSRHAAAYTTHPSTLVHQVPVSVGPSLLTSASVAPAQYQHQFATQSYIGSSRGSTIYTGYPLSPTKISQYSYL
SMILES,remaining binding at 1 µM [1] [%],remaining binding at 1 µM [2] [%],remaining binding at 1 µM [3] [%],remaining binding at 1 µM [4] [%],remaining binding at 1 µM [5] [%],remaining binding at 1 µM [6] [%],remaining binding at 1 µM [7] [%],remaining binding at 1 µM [8] [%],remaining binding at 1 µM [9] [%]
"O=C(c1ccc(-c2cnc3[nH]cc(Cl)c3c2NC2CCCC2)cc1)N1CCC(N2CCOCC2)CC1 [Compound 101, (4-(3-chloro-4-(cyclopentylamino)-1H-pyrrolo[2,3-b]pyridin-5-yl)phenyl)(4-morpholinopiperidin-1-yl)methanone]",92,100,96,96,100,92,91,79,95
"CNc1c(-c2cnn([C@H]3CCN(C(C)=O)C[C@@H]3F)c2)cnc2[nH]cc(Cl)c12 [Compound 77, 1-((3S,4S)-4-(4-(3-chloro-4-(methylamino)-1H-pyrrolo[2,3-b]pyridin-5-yl)-1H-pyrazol-1-yl)-3-fluoropiperidin-1-yl)ethan-1-one]",70,100,100,100,56,91,91,97,33
"CNc1c(-c2ccc(C(=O)N3CCC(N4CCOCC4)CC3)cc2)cnc2[nH]cc(Cl)c12 [Compound 96, (4-(3-chloro-4-(methylamino)-1H-pyrrolo[2,3-b]pyridin-5-yl)phenyl)(4-morpholinopiperidin-1-yl)methanone]",68,81,100,100,73,100,100,92,72

# From patent publication US12275731B2, “Azaindole inhibitors of wild-type and mutant forms of LRRK2” (DANA-FARBER CANCER INSTITUTE, INC., priority 2018, dated 2025)
